Key:
A549 (lung cancer cells) = test: MTT cytotoxicity assay, A549; assay type: cell-based, human; conditions: 72 h, mean (SD)
Method: (§1) The human epithelial ovarian cancer A2780 cell line and its cisplatin-resistant clone A2780cis were obtained from Sigma-Aldrich (Milano, Italy). A2780cis cells were continuously exposed to 1 μM cisplatin to maintain cisplatin resistance. A549 cells (Human non-small cell lung cancer), MCF7 (metastatic breast cancer), PC3 (highly aggressive metastatic prostate cancer), and MG63 (osteosarcoma) were obtained from the American Type Culture Collection (ATCC). Cells were authenticated in laboratory using the PowerPlex 16 HS System. A2780, A2780cis, and PC3 cells were cultured in RPMI-1640 medium; MG63 and MCF7 cells were cultured in DMEM, and A549 cells were cultured in F12 NUT-MIX. The culture medium contained about 10% fetal bovine serum (FBS) (Gibco, Thermo Fisher Scientific, Monza, Italy), about 1% (v/v) of penicillin (10,000 units/mL)-streptomycin (10 mg/mL), and about 1% (v/v) L-glutamine (200 mM) (all from Sigma-Aldrich). Cells were cultured at 37° C. in a 5% CO2, fully humidified atmosphere.
(§2) 2.5×10^3 (PC3, MG63, MCF7) or 4.0×10^3 (A2780, A2780cis, A549) cells were seeded in 96-well microplates in 100 μL culture medium. Cells, allowed to adhere for 24 h, were then treated in triplicate with increasing concentrations of gold compounds. Cisplatin was included as a reference drug. Cell viability was evaluated using 3-(4,5-dimethylthiazol-2-yl)-2,5-diphenyltetrazolium bromide (MTT) assay (Sigma-Aldrich) after 72 h of treatment. Half maximal inhibitory concentrations (IC50), IC25, and IC75 were calculated using the CalcuSyn software version 2 (Biosoft, Ferguson, MO, USA) (See: Chou, T. C.; Talalay, P. Quantitative Analysis of Dose-Effect Relationships: The Combined Effects of Multiple Drugs or Enzyme Inhibitors. Adv. Enzyme Regul. 1984, 22, 27-55, which is incorporated herein by reference in its entirety). Fold resistance was calculated as the ratio of the IC50 of the A2780cis to that of the parental cell line A2780. Alternatively, cell viability was assayed by crystal violet staining (See: Feoktistova, M.; Geserick, P.; Leverkus, M. Crystal Violet Assay for Determining Viability of Cultured Cells. Cold Spring Harb Protoc 2016, 2016, pdb.prot087379, which is incorporated herein by reference in its entirety). Alternatively, after drug treatment, the culture Medium was removed, cells washed, fixed, and stained, and the Crystal Violet solution lasted 20 minutes (See: Sulaiman, A. A. A.; Casagrande, N.; Borghese, C.; Corona, G.; Isab, A. A.; Ahmad, S.; Aldinucci, D.; Altaf M. Design, Synthesis, and Preclinical Activity in Ovarian Cancer Models of New Phosphanegold(I)—N-Heterocyclic Carbene Complexes. J Med Chem 2022, 65, 14424-14440, which is incorporated herein by reference in its entirety).

[1] = system: A2780 ovarian cancer cells; test: MTT cytotoxicity assay, A2780; assay type: cell-based, human; conditions: 72 h, mean (SD)
Method: as §1, §2

MCF-7 (breast cancer) = test: MTT cytotoxicity assay, MCF-7; assay type: cell-based; conditions: 72 h, mean, SD in next cell
Method: as §1, §2

[2] = system: PC3 (androgen-resistant prostate cancer); test: MTT cytotoxicity assay, PC3; assay type: cell-based; conditions: 72 h, mean (SD)
Method: as §1, §2

[3] = system: A2780cis (cisplatin-resistant clone of A2780); test: MTT cytotoxicity assay, A2780cis; assay type: cell-based, human; conditions: for Fold resistance (A2780cis/A2780): IC50 A2780cis/IC50 A2780; for IC50: MTT, 72 h, mean, SD in next cell
Method: as §1, §2

A549-MCTSs = test: 3D-A549-MCTS viability (PrestoBlue); assay type: cell-based, human
Method: To obtain multiple spheroids, 10.0×10^4 A549 cells were seeded in non-adherent conditions on poly-HEMA coated 96 wells (final volume, 200 μL) for four days. After drug treatment (72 h), the cell viability was determined using PrestoBlue Cell Viability Reagent (Thermo Fisher Scientific, Frederick, MD, USA) (See: Casagrande, N.; Celegato, M.; Borghese, C.; Mongiat, M.; Colombatti, A.; Aldinucci, D. Preclinical Activity of the Liposomal Cisplatin Lipoplatin in Ovarian Cancer. Clin Cancer Res 2014, 20, 5496-5506, which is incorporated herein by reference in its entirety).
3D-MCTSs are a model for in vitro drug testing (See: Zanoni, M.; Piccinini, F.; Arienti, C.; Zamagni, A.; Santi, S.; Polico, R.; Bevilacqua, A.; Tesei, A. 3D Tumor Spheroid Models for in Vitro Therapeutic Screening: A Systematic Approach to Enhance the Biological Relevance of Data Obtained. Sci Rep 2016, 6, 19103, which is incorporated herein by reference in its entirety) and to test drug tissue penetration. Thus, the effects of complex 3 in A549-MCTSs were determined by cultivating tumor cells in non-adherent conditions on poly-HEMA coated wells. […] Representative micro-photographs of A549-MCTSs treated with complex 3 (0.3-5 μM) and with cisplatin (15-250 μM) are shown in FIG. 9C.

MG-63 (osteosarcoma) = test: MTT cytotoxicity assay, MG-63; assay type: cell-based; conditions: 72 h, mean, SD in next cell
Method: as §1
2.5×10^3 (PC3, MG63, MCF7) or 4.0×10^3 (A2780, A2780cis, A549) cells were seeded in 96-well microplates in 100 μL culture medium. Cells, allowed to adhere for 24 h, were then treated in triplicate with increasing concentrations of gold compounds. Cisplatin was included as a reference drug. Cell viability was evaluated using 3-(4,5-dimethylthiazol-2-yl)-2,5-diphenyltetrazolium bromide (MTT) assay (Sigma-Aldrich) after 72 h of treatment. Half maximal inhibitory concentrations (IC50), IC25, and IC75 were calculated using the CalcuSyn software version 2 (Biosoft, Ferguson, MO, USA) (See: Chou, T. C.; Talalay, P. Quantitative Analysis of Dose-Effect Relationships: The Combined Effects of Multiple Drugs or Enzyme Inhibitors. Adv. Enzyme Regul. 1984, 22, 27-55, which is incorporated herein by reference in its entirety). Fold resistance was calculated as the ratio of the IC50 of the A2780cis to that of the parental cell line A2780. […]

[4] = system: A2780cis (cisplatin-resistant clone of A2780); conditions: from J Med Chem 2022, 65, 14424; cited from earlier work
[5] = system: A2780 ovarian cancer cells; conditions: from J Med Chem 2022, 65, 14424; cited from earlier work

Q: Which IC50 (A549 (lung cancer cells)) does the source give for `N.N.[Cl][Pt][Cl]` [Cisplatin, reference compound] here?
A: 6210 nM

Q: What about the IC50 (A549 (lung cancer cells); listed as cisplatin) of the same molecule?
A: 6200 nM

Q: What about the IC50 [1] of the same molecule?
A: 1510 nM

Q: And the IC50 (MCF-7 (breast cancer))?
A: 22200 nM

Q: And the IC50 [2]?
A: 3320 nM

Q: What about the IC50 ([2]; listed as cisplatin) of the same molecule?
A: 3300 nM

Q: And the “Fold resistance (A2780cis/A2780)” value [3]?
A: 6.93

Q: What about the IC50 [3] of the same molecule?
A: 10400 nM

Q: And the IC50 (A549-MCTSs; 72 h, PrestoBlue, poly-HEMA coated wells)?
A: 44000 nM

Q: And the “IC50 fold higher than complex 3 in A549-MCTSs” value (A549-MCTSs; cisplatin vs complex 3)?
A: 46 fold

Q: Which IC50 (A549 (lung cancer cells)) does the source give for `CC(C)c1cccc(C(C)C)c1-n1ccn(-c2c(C(C)C)cccc2C(C)C)[c]1=[Au-][P+](CC[P+]([Au-]=[c]1n(-c2c(C(C)C)cccc2C(C)C)ccn1-c1c(C(C)C)cccc1C(C)C)(c1ccccc1)c1ccccc1)(c1ccccc1)c1ccccc1` [Complex 1, [(Au(IPr))2(C26H24P2)](PF6)2] here?
A: 220 nM

Q: What about the IC50 [1] of the same molecule?
A: 280 nM

Q: And the IC50 (MCF-7 (breast cancer))?
A: 170 nM

Q: And the IC50 [2]?
A: 280 nM

Q: What about the “Fold resistance (A2780cis/A2780)” value [3] of the same molecule?
A: 1.18

Q: What about the IC50 [3] of the same molecule?
A: 330 nM

Q: What about the IC50 (MG-63 (osteosarcoma)) of the same molecule?
A: 310 nM

Q: Which IC50 (A549 (lung cancer cells)) does the source give for `CC(C)c1cccc(C(C)C)c1-n1ccn(-c2c(C(C)C)cccc2C(C)C)[c]1=[Au-][P+](CCC[P+]([Au-]=[c]1n(-c2c(C(C)C)cccc2C(C)C)ccn1-c1c(C(C)C)cccc1C(C)C)(c1ccccc1)c1ccccc1)(c1ccccc1)c1ccccc1` [Complex 2, [(Au(IPr))2(C27H26P2)](PF6)2] here?
A: 260 nM

Q: What about the IC50 [1] of the same molecule?
A: 280 nM

Q: What about the IC50 (MCF-7 (breast cancer)) of the same molecule?
A: 280 nM

Q: And the IC50 [2]?
A: 250 nM

Q: And the “Fold resistance (A2780cis/A2780)” value [3]?
A: 1.61

Q: What about the IC50 [3] of the same molecule?
A: 450 nM

Q: And the IC50 (MG-63 (osteosarcoma))?
A: 420 nM

Q: Which “anti-proliferative activity in A2780cis cells (comparison)” value [4] does the source give for `CC(C)c1cccc(C(C)C)c1-n1cc[n+](-c2c(C(C)C)cccc2C(C)C)[c]1[Au-][P+](C1CCCCC1)(C1CCCCC1)C1CCCCC1.ClC(Cl)Cl.F[P-](F)(F)(F)(F)F` [[Au(IPr)(Cy3P)]PF6·CHCl3] here?
A: more active

Q: What about the “anti-proliferative activity in A2780 cells (comparison)” value [5] of the same molecule?
A: more active
